Laboratory results: the NIST ThermoML archive (doi:10.1021/je501041r)
± gives the expanded uncertainty stated by the source.

Assay: xn = mol fraction of the nth substance listed
Details: 101 kPa, Liquid; for viscosity: Capillary tube (Ostwald / Ubbelohde) method; for mass density: Vibrating tube method

CCCCCO [pentan-1-ol] + CC(C)CC(C)(C)C
Details | mass density [kg/m3] | viscosity [mPa·s]
298.15 K, x2 = 0 | 810.59 ± 2 | 3.458 ± 0.042
298.15 K, x2 = 0.1004 | 794.33 ± 2 | 2.615 ± 0.032
298.15 K, x2 = 0.2003 | 778.35 ± 2 | 1.984 ± 0.024
298.15 K, x2 = 0.3 | 763.77 ± 2 | 1.525 ± 0.018
298.15 K, x2 = 0.4 | 749.96 ± 2 | 1.189 ± 0.014
298.15 K, x2 = 0.5 | 737.18 ± 2 | 0.948 ± 0.011
298.15 K, x2 = 0.5999 | 725.64 ± 2 | 0.785 ± 0.009
298.15 K, x2 = 0.6998 | 714.97 ± 2 | 0.663 ± 0.008
298.15 K, x2 = 0.7999 | 705.08 ± 2 | 0.579 ± 0.007
298.15 K, x2 = 0.8996 | 696.03 ± 2 | 0.518 ± 0.006
303.15 K, x2 = 0 | 807.89 ± 2 | 3.007 ± 0.037
303.15 K, x2 = 0.1004 | 790.55 ± 2 | 2.291 ± 0.028
303.15 K, x2 = 0.2003 | 774.49 ± 2 | 1.758 ± 0.021
303.15 K, x2 = 0.3 | 759.83 ± 2 | 1.365 ± 0.016
303.15 K, x2 = 0.4 | 745.97 ± 2 | 1.076 ± 0.013
303.15 K, x2 = 0.5 | 733.13 ± 2 | 0.867 ± 0.01
303.15 K, x2 = 0.5999 | 721.55 ± 2 | 0.724 ± 0.009
303.15 K, x2 = 0.6998 | 710.84 ± 2 | 0.623 ± 0.007
303.15 K, x2 = 0.7999 | 700.93 ± 2 | 0.552 ± 0.007
303.15 K, x2 = 0.8996 | 691.85 ± 2 | 0.49 ± 0.006
308.15 K, x2 = 0 | 804.16 ± 2 | 2.625 ± 0.032
308.15 K, x2 = 0.1004 | 786.73 ± 2 | 2.038 ± 0.025
308.15 K, x2 = 0.2003 | 770.6 ± 2 | 1.562 ± 0.019
308.15 K, x2 = 0.3 | 755.86 ± 2 | 1.225 ± 0.015
308.15 K, x2 = 0.4 | 741.94 ± 2 | 0.977 ± 0.012
308.15 K, x2 = 0.5 | 729.05 ± 2 | 0.797 ± 0.01
308.15 K, x2 = 0.5999 | 717.43 ± 2 | 0.671 ± 0.008
308.15 K, x2 = 0.6998 | 706.68 ± 2 | 0.579 ± 0.007
308.15 K, x2 = 0.7999 | 696.74 ± 2 | 0.513 ± 0.006
308.15 K, x2 = 0.8996 | 687.64 ± 2 | 0.466 ± 0.006
313.15 K, x2 = 0 | 800.4 ± 2 | 2.317 ± 0.029
313.15 K, x2 = 0.1004 | 782.88 ± 2 | 1.806 ± 0.022
313.15 K, x2 = 0.2003 | 766.66 ± 2 | 1.403 ± 0.017
313.15 K, x2 = 0.3 | 751.85 ± 2 | 1.105 ± 0.013
313.15 K, x2 = 0.4 | 737.87 ± 2 | 0.89 ± 0.011
313.15 K, x2 = 0.5 | 724.94 ± 2 | 0.734 ± 0.009
313.15 K, x2 = 0.5999 | 713.27 ± 2 | 0.624 ± 0.008
313.15 K, x2 = 0.6998 | 702.49 ± 2 | 0.549 ± 0.007
313.15 K, x2 = 0.7999 | 692.51 ± 2 | 0.482 ± 0.006
313.15 K, x2 = 0.8996 | 683.4 ± 2 | 0.438 ± 0.005
318.15 K, x2 = 0 | 796.59 ± 2 | 2.029 ± 0.025
318.15 K, x2 = 0.1004 | 778.99 ± 2 | 1.618 ± 0.02
318.15 K, x2 = 0.2003 | 762.69 ± 2 | 1.255 ± 0.015
318.15 K, x2 = 0.3 | 747.8 ± 2 | 1.001 ± 0.012
318.15 K, x2 = 0.4 | 733.76 ± 2 | 0.815 ± 0.01
318.15 K, x2 = 0.5 | 720.78 ± 2 | 0.679 ± 0.008
318.15 K, x2 = 0.5999 | 709.06 ± 2 | 0.582 ± 0.007
318.15 K, x2 = 0.6998 | 698.25 ± 2 | 0.518 ± 0.006
318.15 K, x2 = 0.7999 | 688.24 ± 2 | 0.454 ± 0.006
318.15 K, x2 = 0.8996 | 679.11 ± 2 | 0.422 ± 0.005
323.15 K, x2 = 0 | 792.75 ± 2 | 1.795 ± 0.022
323.15 K, x2 = 0.1004 | 775.05 ± 2 | 1.443 ± 0.018
323.15 K, x2 = 0.2003 | 758.67 ± 2 | 1.131 ± 0.014
323.15 K, x2 = 0.3 | 743.71 ± 2 | 0.914 ± 0.011
323.15 K, x2 = 0.4 | 729.61 ± 2 | 0.749 ± 0.009
323.15 K, x2 = 0.5 | 716.58 ± 2 | 0.63 ± 0.008
323.15 K, x2 = 0.5999 | 704.82 ± 2 | 0.548 ± 0.007
323.15 K, x2 = 0.6998 | 693.98 ± 2 | 0.486 ± 0.006
323.15 K, x2 = 0.7999 | 683.93 ± 2 | 0.428 ± 0.005
323.15 K, x2 = 0.8996 | 674.79 ± 2 | 0.393 ± 0.005
